How the values were obtained:
[1] = system: LSR receptors; assay type: cell-based, rat; details: after leptin; 5 μM cycloheximide or 2.5 μM cytochalasin B, 30 min 37° C.
Experimental: Primary cultures of rat hepatocytes are incubated for 30 min at 37° C. in the presence or in the absence of 20 ng/ml of leptin, for 10 min at 37° C. in the presence of 0.8 mM oleate. The cells are washed with PBS buffer precooled to 4° C., and then incubated for 2 hours at 4° C. in the presence of increasing concentrations of ^125I-LDL. The cells are then washed, lysed and the quantity of bound ^125I-LDL is measured.
The initial conditions are identical to those described above; after incubation with leptin, the cells are incubated for 30 min at 37° C. with 5 μM cycloheximide, 5 μM colchicine or 2.5 μM cytochalasin B. The cells are then incubated for 10 min at 37° C. in the presence of 0.8 mM oleate. The cells are then washed with PBS buffer precooled to 4° C., and then incubated for 2 hours at 4° C. in the presence of 50 μg/ml of ^125I-LDL. 2 measurements are carried out, and the mean results are presented.

[2] = molecular target: T1, LSR (Rattus norvegicus, UniProt Q9WU74); experiment: Effect of C1q on binding, internalization and degradation of LDLs by hepatocytes in primary culture; assay type: cell-based
T1 sequence (Q9WU74 36-593): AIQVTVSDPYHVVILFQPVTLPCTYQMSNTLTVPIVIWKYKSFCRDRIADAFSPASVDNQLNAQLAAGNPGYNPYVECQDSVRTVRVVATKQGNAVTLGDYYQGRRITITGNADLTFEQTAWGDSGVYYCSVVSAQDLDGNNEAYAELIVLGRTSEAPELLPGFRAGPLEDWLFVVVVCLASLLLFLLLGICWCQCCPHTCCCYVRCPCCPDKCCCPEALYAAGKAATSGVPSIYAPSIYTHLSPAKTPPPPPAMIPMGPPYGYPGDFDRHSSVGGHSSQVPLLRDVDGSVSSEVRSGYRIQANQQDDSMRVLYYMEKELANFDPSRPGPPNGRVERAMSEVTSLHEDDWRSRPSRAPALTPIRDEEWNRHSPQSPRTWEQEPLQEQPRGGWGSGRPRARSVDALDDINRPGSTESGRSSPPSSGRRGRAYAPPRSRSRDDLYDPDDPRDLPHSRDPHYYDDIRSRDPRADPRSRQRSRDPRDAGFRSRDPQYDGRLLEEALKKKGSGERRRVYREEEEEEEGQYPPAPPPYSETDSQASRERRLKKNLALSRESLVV
T1 sequence (Q9WU74 36-525 isoform Q9WU74-3 limits assumed): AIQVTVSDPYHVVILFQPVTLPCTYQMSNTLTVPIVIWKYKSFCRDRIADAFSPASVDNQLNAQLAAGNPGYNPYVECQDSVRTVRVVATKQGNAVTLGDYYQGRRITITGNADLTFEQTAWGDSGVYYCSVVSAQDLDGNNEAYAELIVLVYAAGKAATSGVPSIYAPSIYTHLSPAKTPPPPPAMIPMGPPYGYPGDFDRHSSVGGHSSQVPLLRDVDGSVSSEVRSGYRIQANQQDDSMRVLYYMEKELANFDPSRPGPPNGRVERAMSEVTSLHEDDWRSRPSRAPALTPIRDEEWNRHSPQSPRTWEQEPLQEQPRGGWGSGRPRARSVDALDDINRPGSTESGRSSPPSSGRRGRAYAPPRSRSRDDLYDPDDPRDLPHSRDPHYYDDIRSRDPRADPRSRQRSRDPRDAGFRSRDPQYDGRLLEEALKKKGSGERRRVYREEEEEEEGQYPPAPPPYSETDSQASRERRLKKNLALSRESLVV
Experimental: The LSR activity in the primary cultures of rat hepatocytes is measured by the binding, internalization and degradation of ^125I-LDL and ^125I-VLDL (LDL: low-density lipoprotein; VLDL: very low-density lipoprotein), as described in Bihain and Yen, 1992 and Mann et al., 1995.
It has been shown that gC1q-R could bind the globular head of […]. We sought to use this property of C1q to displace gC1q-R combined with LSR, and we measured the effect of increasing doses of C1q on the binding, internalization and degradation of the LDLs by hepatocytes in primary culture.

Row | capture and degradation of LDLs ([2]; human C1q, in the absence of oleate) | Compound | induction by leptin of the LSR activity (increase in apparent number of receptors) [1] | capture and degradation of LDLs ([2]; C1q, in the presence of oleate)
1 | – | C[C@@H]1C[C@@H]([C@H](O)CC2CC(=O)NC(=O)C2)C(=O)[C@@H](C)C1 [cycloheximide] | partially inhibited | –
2 | – | C=C1[C@@H](C)[C@H]2[C@H](Cc3ccccc3)NC(=O)[C@]23OC(=O)/C=C/[C@H](O)CCC[C@@H](C)C/C=C/[C@H]3[C@@H]1O [cytochalasin B] | inhibited | –
3 | increase | C1q: human complement factor C1q, binds gC1q-R | – | less substantial, but nevertheless significant, increase

From patent publication US7919091B2, “Lipolysis stimulated receptor (LSR) specific antibodies” (Serono Genetics Institute S.A., priority 1997, dated 2011)
